Data from article PMC2680961, “Homologous desensitization of signalling by the alpha (α) isoform of the human thromboxane A2 receptor: A specific role for nitric oxide signalling” (Biochimica et Biophysica Acta, 2007).
Residue numbers refer to the chain shown, from its start.

What was measured:
TPα^S329A = molecular target: T1, TPα^S329A (Homo sapiens, UniProt P21731, S329A); experiment: [3H]SQ29,548 radioligand binding, Scatchard analysis, HEK.TPα^S329A
T1 construct: expressed in transfected cells
T1 sequence (P21731 1-343 S329A): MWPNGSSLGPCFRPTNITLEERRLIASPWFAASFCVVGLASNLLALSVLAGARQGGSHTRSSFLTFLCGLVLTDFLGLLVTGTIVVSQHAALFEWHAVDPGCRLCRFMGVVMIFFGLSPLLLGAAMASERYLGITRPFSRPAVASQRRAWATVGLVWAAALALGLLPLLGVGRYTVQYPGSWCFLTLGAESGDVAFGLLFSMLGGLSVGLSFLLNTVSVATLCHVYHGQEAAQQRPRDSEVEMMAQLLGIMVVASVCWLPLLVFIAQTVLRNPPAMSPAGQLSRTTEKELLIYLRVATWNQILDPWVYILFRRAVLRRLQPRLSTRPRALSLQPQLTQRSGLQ
Experimental: (§1) Cells were harvested by centrifugation at 500×g at 4 °C for 5 min and washed three times with ice-cold Ca^2+/Mg^2+-free phosphate-buffered saline (PBS). TP radioligand binding assays were carried out at 30 °C for 30 min in 100 μl reactions in the presence of 0–40 nM [^3H] […] Protein determinations were carried out using the Bradford assay.
(§2) Radioligand binding and Scatchard analysis data were analysed using GraphPad Prisim V4.0 programme (GraphPad Software Inc., San Diego CA, USA). Statistical analyses were carried out using the unpaired Student's t test using the Statworks Analysis Package. p-values ≤ 0.01 indicated statistically significant differences.

TP^Δ328 = molecular target: T2, TP^Δ328 (Homo sapiens, UniProt P21731); experiment: [3H]SQ29,548 radioligand binding, Scatchard analysis, HEK.TP^Δ328
T2 construct: expressed in transfected cells
T2 sequence (P21731 1-328): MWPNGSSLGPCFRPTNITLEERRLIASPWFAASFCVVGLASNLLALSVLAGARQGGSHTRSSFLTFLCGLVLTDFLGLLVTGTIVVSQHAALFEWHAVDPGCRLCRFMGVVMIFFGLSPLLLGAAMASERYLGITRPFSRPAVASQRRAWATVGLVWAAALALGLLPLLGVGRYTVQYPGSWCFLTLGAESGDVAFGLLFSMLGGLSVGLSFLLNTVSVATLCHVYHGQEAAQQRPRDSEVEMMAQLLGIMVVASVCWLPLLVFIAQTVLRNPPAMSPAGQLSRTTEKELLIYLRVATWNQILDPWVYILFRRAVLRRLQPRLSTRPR
Experimental: as §1, §2

TPα^S145A = molecular target: T3, TPα^S145A (Homo sapiens, UniProt P21731, S145A); experiment: [3H]SQ29,548 radioligand binding, Scatchard analysis, HEK.TPα^S145A
T3 construct: expressed in transfected cells
T3 sequence (P21731 1-343 S145A): T1 sequence (P21731 1-343 S329A) with S145A, A329S
Experimental: as §1, §2

TPα^S145,S331,T337A = experiment: Intracellular calcium mobilization, HEK.TPα^S145,S331,T337A cells; assay type: cell-based, human; details: data not shown
Experimental: Measurement of intracellular calcium mobilization ([Ca^2+]i) in FURA2/AM preloaded HEK 293 cell lines (2 × 10^6 cells/dish), each transiently co-transfected with pADVA (10 μg), and pCMV:Gαq (25 μg), was carried out as previously described. To investigate the effect of GRK2/βARK1 on TP-mediated [Ca^2+]i mobilization, HEK.TPα or HEK.TPβ cells (2 × 10^6 cells/dish) were co-transfected with pADVA (10 μg), pCMV:Gαq (25 μg) along with pRK5:βARK1^495–689 (25 μg), encoding a dominant negative form of GRK2/βARK1[39]. […] For each measurement of [Ca^2+]i mobilization, aliquots of cells were diluted to 0.825 × 10^6 cells/ml in HBSSHB, 1 mM CaCl2 and FURA2 fluorescence was recorded (2 ml aliquots of cells) at 37^ °C with gentle stirring with a Perkin Elmer-Cetus LS50-B spectrofluorometer at excitation wavelengths of 340 nm and 380 nm and emission wavelength of 510 nm, respectively.
Cells were stimulated with the TP agonist U46619 (1 μM) and changes in [Ca^2+]i mobilization were monitored as a function of time. […]
The vehicle had no effect on U46619-mediated [Ca^2+]i mobilization. Calibration of the signal was performed in each sample by adding 0.2% Triton X-100 to obtain the maximal fluorescence ratio (Rmax) and then 1 mM EGTA to obtain the minimal fluorescence ratio (Rmin). […]

Row | Bmax (pmol/mg protein ± S.E.M.) (TPα^S329A) [pmol/mg protein] | Bmax (pmol/mg protein ± S.E.M.) (TP^Δ328) [pmol/mg protein] | Bmax (pmol/mg protein ± S.E.M.) (TPα^S145A) [pmol/mg protein] | SMILES | secondary U46619 [Ca2+]i response relative to primary response (TPα^S145,S331,T337A) [%]
1 | 4.43 ± 0.04 | 4.47 ± 0.04 | 3.03 ± 0.04 | O=C(O)CCC/C=C\C[C@@H]1[C@H](CNNC(=O)Nc2ccccc2)[C@H]2CC[C@@H]1O2 [SQ29,548] | 
2 |  |  |  | CCCCC[C@H](O)/C=C/[C@@H]1[C@@H](C/C=C\CCCC(=O)O)[C@H]2CO[C@@H]1C2 [U46619] | 55
